Data taken from patent US20230219979A1, “PYRAZOLO[1,5-a]PYRIDINE COMPOUND, PREPARATION METHOD THEREFOR AND USE THEREOF” (SHENZHEN ZHONGGE BIOLOGICAL TECHNOLOGY CO., LTD., priority 2019, published 2023).
Read-outs that look alike come from different tables or passages of the source.

Experiments:
VEGFR2 kinase = VEGFR2 kinase (Homo sapiens, UniProt P35968); assay: HTRF method for testing the inhibitory activity of compounds against VEGFR2; format: biochemical
Wild-type RET kinase = Wild-type RET kinase (Homo sapiens, UniProt P07949); assay: HTRF method for testing the inhibitory activity of compounds against RET; format: biochemical
Ba/F3-KIF5B-RET cell = target: T1, Ba/F3-KIF5B-RET cell (Homo sapiens, UniProt P07949); assay: CellTiter-Glo luminescence assay, inhibitory activity against Ba/F3-KIF5B-RET cell; format: cell-based
T1 construct: fused on or other part: P33176 (Kinesin-1 heavy chain)
Excerpt: (C) In Vitro Screening Experiment - CellTiter-Glo Luminescence Assay for Testing The inhibitory activity of compounds against Ba/F3-KIF5B-RET cell
• 1. The mammalian cell expression vector containing human KIF5B-RET cDNA was introduced into Ba/F3 cells using the Neon® transfection system method, and the surviving clones screened by puromycin were subjected to cell growth inhibitory function experiments and Western blotting to verify cell lines with stable and high expression of RET. • 2. Cells were cultured in RPMI 1640 medium containing 10% fetal bovine serum, 1% penicillin-streptomycin, and 2 µg/mL puromycin, and then placed in a 37° C., 5% carbon dioxide cell incubator. • 3. The test compound (5 mM stock) was diluted 2.5 folds to […] with 100% dimethyl sulfoxide; and the compound was diluted into 10 concentrations at an equal ratio of 1:3 in a 384-well dilution plate. • 4. 0.2 µL of the serially diluted compound was added to a 384-well cell culture plate (Corning, 3570) using an Echo 550 pipetting system, 2 replicate wells for each concentration, and the final concentration of dimethyl sulfoxide was 0.5% (v/v). The gradient concentrations of the test compound were 5000, 1666.7, 555.5, 185.18, 61.72, 20.57, 6.858, 2.286, 0.764, 0.254 nM. • 5. 40 µL of Ba/F3-KIF5B-RET cell suspension containing 800 cells was added to each well, and incubated for 72 h in a 5% CO2 cell incubator. • 6. 20 µL of Cell Titer-Glo reagent was added to each well of the cell culture plate, and the culture system was then shaken and mixed thoroughly for 2 min to lyse the cells, the cells were then incubated at room temperature for 30 min, and the […] signal values were then read with an Envision 2104 microplate reader. • 7. By fitting the data with XLFit 5.0 based on the parameters formula, the IC50 value was calculated as: • [formula]

[1] = HTRF, read-out: Wild-type RET kinase
[2] = 72 h, read-out: Ba/F3-KIF5B-RET cell activity
[3] = read-out: Ba/F3-KIF5B-RET cell activity, 72 h

T1 sequence (P07949 whole entry, stated change not applied, the tested form may be a part): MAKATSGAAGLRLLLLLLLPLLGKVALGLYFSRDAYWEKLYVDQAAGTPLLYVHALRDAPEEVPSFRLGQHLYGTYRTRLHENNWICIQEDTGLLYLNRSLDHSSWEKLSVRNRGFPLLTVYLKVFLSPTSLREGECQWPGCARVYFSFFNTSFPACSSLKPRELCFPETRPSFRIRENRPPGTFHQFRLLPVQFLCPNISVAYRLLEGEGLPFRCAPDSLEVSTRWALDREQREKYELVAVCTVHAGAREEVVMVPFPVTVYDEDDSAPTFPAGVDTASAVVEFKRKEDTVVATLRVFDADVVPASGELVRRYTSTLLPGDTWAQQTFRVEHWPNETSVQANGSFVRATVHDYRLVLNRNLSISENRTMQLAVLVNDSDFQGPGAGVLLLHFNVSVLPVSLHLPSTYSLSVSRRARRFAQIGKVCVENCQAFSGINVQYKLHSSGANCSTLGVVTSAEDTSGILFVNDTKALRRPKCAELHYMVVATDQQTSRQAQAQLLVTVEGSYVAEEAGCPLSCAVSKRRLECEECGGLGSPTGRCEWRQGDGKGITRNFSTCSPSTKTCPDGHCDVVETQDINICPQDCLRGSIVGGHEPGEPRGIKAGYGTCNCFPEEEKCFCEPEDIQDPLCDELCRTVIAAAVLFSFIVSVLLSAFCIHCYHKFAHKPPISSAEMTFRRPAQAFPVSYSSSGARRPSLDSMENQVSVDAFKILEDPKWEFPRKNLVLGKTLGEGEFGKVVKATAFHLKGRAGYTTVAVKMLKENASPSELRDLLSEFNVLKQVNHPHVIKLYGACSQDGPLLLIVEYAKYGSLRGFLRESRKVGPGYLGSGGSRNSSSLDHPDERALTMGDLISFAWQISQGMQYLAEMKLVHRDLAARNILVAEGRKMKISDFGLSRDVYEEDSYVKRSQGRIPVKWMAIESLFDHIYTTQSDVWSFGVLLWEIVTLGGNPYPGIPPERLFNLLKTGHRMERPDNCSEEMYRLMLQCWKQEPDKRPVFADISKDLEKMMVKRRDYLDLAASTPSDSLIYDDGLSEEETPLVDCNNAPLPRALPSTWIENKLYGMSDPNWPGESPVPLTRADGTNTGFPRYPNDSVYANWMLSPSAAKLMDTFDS
Sequence of VEGFR2 kinase (P35968 20-1356): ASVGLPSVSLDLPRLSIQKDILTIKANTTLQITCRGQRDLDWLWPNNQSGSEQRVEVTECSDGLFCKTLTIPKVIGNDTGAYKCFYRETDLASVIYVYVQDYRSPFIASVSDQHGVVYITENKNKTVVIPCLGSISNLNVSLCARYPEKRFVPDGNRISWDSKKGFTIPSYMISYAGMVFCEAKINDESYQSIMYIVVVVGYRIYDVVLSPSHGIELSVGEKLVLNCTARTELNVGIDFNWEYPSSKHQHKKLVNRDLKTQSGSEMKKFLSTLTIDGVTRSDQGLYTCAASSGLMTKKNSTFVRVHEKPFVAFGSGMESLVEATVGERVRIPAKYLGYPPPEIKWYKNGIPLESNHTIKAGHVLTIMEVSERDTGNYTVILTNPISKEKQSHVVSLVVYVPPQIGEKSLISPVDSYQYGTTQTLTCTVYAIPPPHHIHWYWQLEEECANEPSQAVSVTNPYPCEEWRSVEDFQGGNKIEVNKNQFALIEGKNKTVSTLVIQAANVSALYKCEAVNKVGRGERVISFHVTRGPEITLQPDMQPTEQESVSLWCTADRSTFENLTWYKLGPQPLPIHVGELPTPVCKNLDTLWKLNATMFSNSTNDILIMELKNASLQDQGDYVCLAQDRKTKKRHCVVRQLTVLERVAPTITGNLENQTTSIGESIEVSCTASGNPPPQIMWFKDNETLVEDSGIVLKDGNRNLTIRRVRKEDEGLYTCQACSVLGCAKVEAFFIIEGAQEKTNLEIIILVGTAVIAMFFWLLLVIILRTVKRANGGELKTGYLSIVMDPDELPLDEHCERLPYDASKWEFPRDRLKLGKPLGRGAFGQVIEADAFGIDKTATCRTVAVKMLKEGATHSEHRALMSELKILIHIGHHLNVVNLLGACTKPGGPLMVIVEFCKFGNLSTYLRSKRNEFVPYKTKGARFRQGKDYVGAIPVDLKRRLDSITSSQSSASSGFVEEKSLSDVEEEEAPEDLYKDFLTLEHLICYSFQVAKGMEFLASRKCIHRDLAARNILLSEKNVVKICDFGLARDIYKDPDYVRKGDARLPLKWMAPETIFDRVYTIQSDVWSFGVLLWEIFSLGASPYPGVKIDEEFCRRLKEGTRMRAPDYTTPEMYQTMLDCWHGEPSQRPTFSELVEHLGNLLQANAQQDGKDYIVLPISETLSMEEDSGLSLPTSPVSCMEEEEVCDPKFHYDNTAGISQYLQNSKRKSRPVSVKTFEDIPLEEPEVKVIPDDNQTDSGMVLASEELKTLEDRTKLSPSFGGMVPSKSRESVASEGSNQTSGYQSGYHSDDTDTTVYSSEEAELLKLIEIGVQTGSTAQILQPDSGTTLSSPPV
Sequence of Wild-type RET kinase (P07949 29-1114): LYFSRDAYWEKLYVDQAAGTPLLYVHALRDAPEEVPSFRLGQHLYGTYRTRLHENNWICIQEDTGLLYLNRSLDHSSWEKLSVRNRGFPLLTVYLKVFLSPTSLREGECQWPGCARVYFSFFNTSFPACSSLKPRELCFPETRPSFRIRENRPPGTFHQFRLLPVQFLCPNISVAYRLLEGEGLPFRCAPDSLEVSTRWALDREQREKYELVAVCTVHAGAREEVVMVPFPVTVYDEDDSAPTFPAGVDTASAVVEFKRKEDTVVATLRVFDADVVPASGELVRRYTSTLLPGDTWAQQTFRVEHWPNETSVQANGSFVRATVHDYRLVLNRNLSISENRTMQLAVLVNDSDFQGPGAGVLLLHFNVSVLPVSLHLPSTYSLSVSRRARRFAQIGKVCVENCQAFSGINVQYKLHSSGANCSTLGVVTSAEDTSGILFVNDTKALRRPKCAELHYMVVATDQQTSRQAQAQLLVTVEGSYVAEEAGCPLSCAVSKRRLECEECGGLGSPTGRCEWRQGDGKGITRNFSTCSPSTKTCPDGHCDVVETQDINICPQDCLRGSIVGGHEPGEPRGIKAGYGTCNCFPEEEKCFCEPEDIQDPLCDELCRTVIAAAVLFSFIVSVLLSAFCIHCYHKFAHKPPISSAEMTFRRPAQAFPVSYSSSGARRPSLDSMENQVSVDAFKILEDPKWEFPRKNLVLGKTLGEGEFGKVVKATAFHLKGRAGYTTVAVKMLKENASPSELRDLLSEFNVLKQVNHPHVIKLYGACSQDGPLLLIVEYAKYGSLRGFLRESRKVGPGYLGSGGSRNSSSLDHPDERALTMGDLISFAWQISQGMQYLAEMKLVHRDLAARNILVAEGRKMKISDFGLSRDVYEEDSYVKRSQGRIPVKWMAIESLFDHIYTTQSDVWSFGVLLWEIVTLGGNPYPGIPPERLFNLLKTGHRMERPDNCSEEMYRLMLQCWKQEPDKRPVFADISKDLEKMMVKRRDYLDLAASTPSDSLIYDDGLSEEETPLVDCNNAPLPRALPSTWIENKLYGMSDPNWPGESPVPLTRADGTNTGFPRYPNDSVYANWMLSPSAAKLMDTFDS

Row | IC50 (VEGFR2 kinase) [µM] | IC50 (Wild-type RET kinase; [1]) [µM] | GI50 (Ba/F3-KIF5B-RET cell; [2]) [µM] | Compound | GI50 (Ba/F3-KIF5B-RET cell; [3]) [µM] | IC50 (Wild-type RET kinase) [µM]
1 | ≥ 5 | 0.25 | – | COc1ccc(CN2CCN(c3ccc(-c4cc(-c5cnn(C)c5)cn5ncc(C(N)=O)c45)cn3)CC2)cn1 [Compound 8, 4-(6-(4-((6-methoxypyridin-3-yl)methyl)piperazin-1-yl)pyridin-3-yl)-6-(1-methyl-1H-pyrazol-4-yl)pyrazolo[1,5-a]pyridine-3-carboxamide] | – | –
2 | – | 0.00124 | 0.151 | COc1ccc(CN2C3CC2CN(c2cnc(-c4cc(OCCN5CC6CC(C5)N6)cn5ncc(C#N)c45)cn2)C3)cn1 [Compound 22, 6-(2-(3,6-diazabicyclo[3.1.1]heptan-3-yl)ethoxy)-4-(5-(6-((6-methoxypyridine-3-yl)methyl)-3,6-diazabicyclo[3.1.1]heptan-3-yl)pyrazin-2-yl)pyrazolo[1,5-a]pyridine-3-carbonitrile] | – | –
3 | – | 0.00135 | 1.13 | COc1ccc(CN2C3CC2CN(c2cnc(-c4cc(OCCN5CCCC56CNC6)cn5ncc(C#N)c45)cn2)C3)cn1 [Compound 23, 6-(2-(2,5-diazaspiro[3.4]octan-5-yl)ethoxy)-4-(5-(6-((6-methoxypyridin-3-yl)methyl)-3,6-diazabicyclo[3.1.1]heptan-3-yl)pyrazin-2-yl)pyrazolo[1,5-a]pyridine-3-carbonitrile] | – | –
4 | – | 0.00219 | 0.0213 | COc1ccc(CN2C3CC2CN(c2cnc(-c4cc(OCCN5CCC6(CCCCC6)CC5)cn5ncc(C#N)c45)cn2)C3)cn1 [Compound 24, 6-(2-(3-azaspiro[5.5]undecane-3-yl)ethoxy)-4-(5-(6-((6-methoxypyridin-3-yl)methyl)-3,6diazabicyclo[3.1.1]heptan-3-yl)pyrazin-2-yl)pyrazolo[1,5-a]pyridine-3-carbonitrile] | – | –
5 | – | 0.00289 | 0.0277 | COc1ccc(CN2C3CC2CN(c2cnc(-c4cc(OCCN5CCC6(CCCO6)CC5)cn5ncc(C#N)c45)cn2)C3)cn1 [Compound 25, 6-(2-(1-oxa-8-azaspiro[4.5]dec-8-yl)ethoxy)-4-(5-(6-((6-methoxypyridin-3-yl)methyl)-3,6-diazabicyclo[3.1.1]heptan-3-yl)pyrazin-2-yl)pyrazolo[1,5-a]pyridine-3-carbonitrile] | – | –
6 | – | – | – | COc1ccc(CN2C3CC2CN(c2cnc(-c4cc(OC(=O)N5CCN(C)CC5)cn5ncc(C#N)c45)cn2)C3)cn1 [Compound 26, 3-cyano-4-(5-(6-((6-methoxypyridin-3-yl)methyl)-3,6-diazabicyclo[3.1.1]heptan-3-yl)pyrazin)pyrazolo[1,5-a]pyridin-6-yl 4-methylpiperazine-1-carboxylate] | 0.0642 | 0.0127
7 | – | – | – | COc1ccc(CN2C3CC2CN(c2cnc(-c4cc(OC(=O)N5CCOCC5)cn5ncc(C#N)c45)cn2)C3)cn1 [Compound 27, 3-cyano-4-(5-(6-((6-methoxypyridin-3-yl)methyl)-3,6-diazabicyclo[3.1.1]heptan-3-yl)pyrazin-2-yl]pyrazolo[1,5-a]pyridin-6-ylmorpholine-4-carboxylate] | 0.0517 | 0.0157
8 | – | 0.0013 | 0.0126 | COc1ccc(CN2C3CC2CN(c2cnc(-c4cc(NCc5ccccn5)cn5ncc(C#N)c45)cn2)C3)cn1 [Compound 28, 4-(5-(6-((6-methoxypyridin-3-yl)methyl)-3,6-diazabicyclo[3.1.1]heptan-3-yl)pyrazin-2-yl)-6-((pyridin-2-ylmethyl)amino)pyrazolo[1,5-a]pyridine-3-carbonitrile] | – | –
9 | – | 0.00398 | 0.0634 | COc1ccc(CN2C3CC2CN(c2cnc(-c4cc(OCCN5CCC6(CC5)COC6)cn5ncc(C#N)c45)cn2)C3)cn1 [Compound 30, 6-(2-(2-oxa-7-azaspiro[3.5]non-7-yl)ethoxy)-4-(5-(6-((6-methoxypyridin-3-yl)methyl)-3,6-diazabicyclo[3.1.1]heptan-3-yl)pyrazin-2-yl)pyrazolo[1,5-a]pyridine-3-carbonitrile] | – | –
10 | – | 0.0014 | 0.0051 | COc1ccc(CN2C3CC2CN(c2cnc(-c4cc(OCCN5C6CCC5COC6)cn5ncc(C#N)c45)cn2)C3)cn1 [Compound 31, 6-(2-(3-oxa-8-azabicyclo[3.2.1]oct-8-yl)ethoxy)-4-(5-(6-((6-methoxypyridine-3-yl)methyl)-3,6diazabicyclo[3.1.1]heptan-3-yl)pyrazin-2-yl)pyrazolo[1,5-a]pyridine-3-carbonitrile] | – | –
11 | – | 0.00414 | 0.0833 | COc1ccc(CN2C3CC2CN(c2cnc(-c4cc(OCCN5CCC6(CC5)CC(=O)N6)cn5ncc(C#N)c45)cn2)C3)cn1 [Compound 32, 4-(5-(6-((6-methoxypyridin-3-yl)methyl)-3,6-diazabicyclo[3.1.1]heptan-3-yl)pyrazin-2-yl)-6-(2-(2-oxo-1,7-diazaspiro[3.5]non-7-yl)ethoxy)pyrazolo[1,5-a]pyridine-3-carbonitrile] | – | –
12 | – | 0.00573 | 0.026 | COc1ccc(CN2C3CC2CN(c2cnc(-c4cc(OCCN5CC6(CCCOC6)C5)cn5ncc(C#N)c45)cn2)C3)cn1 [Compound 33, 6-(2-(6-oxa-2-azaspiro[3.5]non-2-yl)ethoxy)-4-(5-(6-((6-methoxypyridin-3-yl)methyl)-3,6-diazabicyclo[3.1.1]heptan-3-yl)pyrazin-2-yl)pyrazolo[1,5-a]pyridine-3-carbonitrile] | – | –
13 | – | 0.00204 | 0.0138 | COc1ccc(CN2C3CC2CN(c2cnc(-c4cc(OCCN5CC6(CCCO6)C5)cn5ncc(C#N)c45)cn2)C3)cn1 [Compound 34, 6-(2-(5-oxa-2-azaspiro[3.4]oct-2-yl)ethoxy)-4-(5-(6-((6-methoxypyridin-3-yl)methyl)-3,6-diazabicyclo[3.1.1]heptan-3-yl)pyrazin-2-yl)pyrazolo[1,5-a]pyridine-3-carbonitrile] | – | –
14 | – | 0.00308 | 0.0815 | COc1ccc(CN2C3CC2CN(c2cnc(-c4cc(OCCN5CCC6(CCCNC6=O)CC5)cn5ncc(C#N)c45)cn2)C3)cn1 [Compound 35, 4-(5-(6-((6-methoxypyridin-3-yl)methyl)-3,6-diazabicyclo[3.1.1]heptan-3-yl)pyrazin-2-yl)-6-(2-(-1-oxo-2,9-diazaspiro[5.5]undecan-9-yl)ethoxy)pyrazolo[1,5-a]pyridine-3-carbonitrile] | – | –
15 | 0.454 | 0.00244 | 0.0321 | COc1ccc(CN2C3CC2CN(c2cnc(-c4cc(OCCN5CC6(COC6)C5)cn5ncc(C#N)c45)cn2)C3)cn1 [Compound 36, 6-(2-(2-oxa-6-azaspiro[3.3]hept-6-yl)ethoxy)-4-(5-(6-((6-methoxypyridin-3-yl)methyl)-3,6-diazabicyclo[3.1.1]heptan-3-yl)pyrazin-2-yl)pyrazolo[1,5-a]pyridine-3-carbonitrile] | – | –
16 | 0.801 | 0.0057 | – | COc1ccc(CN2C3CC2CN(c2cnc(-c4cc(OCCN5CCC6(CCOCC6)CC5)cn5ncc(C#N)c45)cn2)C3)cn1 [Compound 37, 6-(2-(3-oxa-9-azaspiro[5.5]undec-9-yl)ethoxy)-4-(5-(6-((6-methoxypyridin-3-yl)methyl)-3,6-diazabicyclo[3.1.1]heptan-3-yl)pyrazin-2-yl)pyrazolo[1,5-a]pyridine-3-carbonitrile] | – | –
17 | 0.666 | 0.00322 | 0.0373 | COc1ccc(CN2C3CC2CN(c2cnc(-c4cc(OCCN5CC6CCC5C6)cn5ncc(C#N)c45)cn2)C3)cn1 (stereo not drawn) [Compound 38, 6-(2-(2-azabicyclo[2.2.1]hept-2-yl)ethoxy)-4-(5-(6-((6-methoxypyridine-3-yl)methyl)-3,6-diazabicyclo[3.1.1]heptan-3-yl)pyrazin-2-yl)pyrazolo[1,5-a]pyridine-3-carbonitrile] | – | –
18 | – | – | – | COc1ccc(CN2C3CC2CN(c2cnc(-c4cc(OC(=O)NC(C)C)cn5ncc(C#N)c45)cn2)C3)cn1 [Compound 41, 3-cyano-4-(5-(6-((6-methoxypyridin-3-yl)methyl)-3,6-diazabicyclo[3.1.1]heptan-3-yl)pyrazin-2-yl)pyrazolo[1,5-a]pyridin-6-ylisopropylcarbamate] | 0.266 | 0.0062
19 | 0.0193 | 0.00022 | – | COc1ccc(CN2C3CC2CN(c2ccc(-c4cc(NCCO)cn5ncc(C#N)c45)cn2)C3)cn1 [Compound 51, 6-((2-hydroxyethyl)amino)-4-(6-(6-((6-methoxypyridin-3-yl)methyl)-3,6-diazabicyclo[3.1.1]hept-3-yl)pyridin-3-yl)pyrazolo[1,5-a]pyridine-3-carbonitrile] | – | –

Row | Compound | IC50 (VEGFR2 kinase) [µM] | IC50 (Wild-type RET kinase; [1]) [µM] | GI50 (Ba/F3-KIF5B-RET cell; [2]) [µM] | GI50 (Ba/F3-KIF5B-RET cell; [3]) [µM] | IC50 (Wild-type RET kinase) [µM]
20 | ethyl 4(6-(4-(6-methoxypyridin-3-yl)piperazin-1-yl)pyridin-3-yl)-6-(1-methyl-1H-pyrazol-4-yl)H-pyrazolo[1,5-a]pyridine-3-carboxylate [Compound 1] | – | 0.0031 | 0.271 | – | –
